Results: PubChem BioAssay (NCI)
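All cell lines were grown in 96-well plates and treated with compound for 48 hours. GI50: concentration for 50% inhibition of growth. At the TGI there is no net growth.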 *1 amine or outer side, *2 acyl side, *3 side chain or, on linkers, in order; H or OH if unused. Where a SMILES comes first, the peptide text is derived from it. CO = O=C([*:1])[*:2]

Experiments:
Assay in all cases: DTP human tumour cell line panel, 48 h
[1] = system: SF-539 CNS
[2] = system: UO-31 renal
[3] = system: LOX IMVI melanoma
[4] = system: BT-549 breast
[5] = system: SW-620 colon
[6] = system: HOP-62 NSCLC
[7] = system: NCI-H23 lung
[8] = system: NCI/ADR-RES ovarian

Row | Structure (SMILES) | GI50 [1] [µM] | TGI [1] [µM] | GI50 [2] [µM] | TGI [2] [µM] | GI50 [3] [µM] | TGI [3] [µM] | GI50 [4] [µM] | TGI [4] [µM] | GI50 [5] [µM] | TGI [5] [µM] | GI50 [6] [µM] | TGI [6] [µM] | GI50 [7] [µM] | TGI [7] [µM] | GI50 [8] [µM] | TGI [8] [µM]
1 | C=C1C(=O)O[C@H]2[C@H]1CC/C(COC(=O)NCCc1c[nH]c3ccccc13)=C\CC[C@@]1(C)O[C@@H]21 | 1.62 | 3.29 | 1.43 | 2.73 | 0.788 | 2.23 | 1.27 | 2.82 | 1.2 | 2.81 | 5.25 | 19.8 | 2.28 | 6.81 | 2.5 | 11.8
2 | Cc1ccc(-c2nc3nc(-c4ccc(Cl)cc4)nc(N4CCCNCC4)c3o2)cc1 | 1.71 | 3.12 | 1.3 | 2.62 | 1.63 | 3.15 | 1.9 | 3.61 | 1.7 | 3.32 | 1.76 | 3.64 | 1.83 | 3.41 | 2.02 | 3.95
3 | C/C=C/C/C=C/CCC(=O)C1OC1C(N)=O (centres undefined) | – | 30.6 | – | 29.5 | – | 26.6 | – | 24.6 | – | 42.3 | – | 15.8 | – | 28.2 | – | 50.1
4 | CN(C)c1ccc2[nH]c(O)c(C=Nc3ccc(S(N)(=O)=O)cc3)c2c1 | > 25 | > 25 | > 25 | > 25 | > 25 | > 25 | > 25 | > 25 | > 21.9 | > 25 | > 25 | > 25 | > 25 | > 25 | > 25 | > 25
5 | CC(C)C(NC(=O)C(CCCN=C(N)N)NC(=O)NC(Cc1ccccc1)C(=O)O)C(=O)NC(C=O)CCCN=C(N)N (stereo not drawn) ({Phe-CO}-Arg-Val-Arg-aldehyde; configuration not given here) | > 5 | > 5 | > 5 | > 5 | > 5 | > 5 | > 5 | > 5 | > 5 | > 5 | > 5 | > 5 | > 5 | > 5 | > 5 | > 5
6 | C=C1C(=O)O[C@H]2[C@H]1CC/C(COC(=O)N[C@@H](Cc1c[nH]c3ccccc13)C(=O)OC)=C\CC[C@@]1(C)O[C@@H]21 | 1.45 | 2.92 | 1.45 | 2.76 | 1.16 | 2.58 | 1.84 | 3.79 | 1.47 | 3.67 | 8.77 | 22.1 | 1.84 | 4.59 | 6.78 | 27.3
7 | C[C@]12CC[C@@H]3c4ccc(OCC(=O)O)cc4CC[C@H]3[C@@H]1CCC2=O | – | > 100 | – | > 100 | – | > 100 | – | > 100 | – | > 100 | – | > 100 | – | > 100 | – | > 100
8 | O=C1NC(=O)[C@H]2C3C=CC([C@@H]12)[C@@H]1C(=O)NC(=O)[C@H]31 | – | > 100 | – | > 100 | – | > 100 | – | > 100 | – | > 100 | – | > 100 | – | > 100 | – | > 100
